Data from patent US20230131993A1 (priority 2020, published 2023).
Read-outs that look alike come from different tables or passages of the source.

Key:
[1] = Color stability of DragoCalm before and after Oxipres treatment (L*a*b* system, Δb*); type: physicochemical; parameters: key: L*a*b* Δb* = b* change before vs after Oxipres; higher = more discolored; conditions: color difference before/after Oxipres treatment
Procedure: (i.e. hydroxyacetophenone).
Furthermore, the color of the DragoCalm® samples was measured before and after the Oxipres treatment by using the L*a*b* system (Lico 690). The b* value describes the discoloration in the yellowish/red/brownish area, the Δ b* value describes the difference of color before and after Oxipres treatment. The higher the Δ b* value the more discolorated is the test solution.

[2] = Oxipres accelerated stability test of DragoCalm: Avenanthramide C content by HPLC before and after treatment; conditions: for degradation inhibitory activity, ranking of single stabilizers: as demonstrated by the examples; for Degradation (%) of Avenanthramide C: DragoCalm, Oxipres 5 bars oxygen, 24 hours, 70° C.
Procedure: The oxidative stability of the glycerol/water-based solution of an DragoCalm® extract as described below with different stabilizer was evaluated against a glycerol/water-based solution of an oat extract without stabilizer.
The Oxipres device allows the determination of oxidative resistance (shelf life) of oils. The device is a modification of the bomb method according to ASTM D941, which is based on oxidation with oxygen. The test runs under elevated pressure and temperature, through which the degradation process is accelerated. During the test, the consumption of oxygen results in a pressure drop in the vessel. Decrease of pressure indicates more consumption of oxygen and higher oxidation of the test product.
Thus, it is an accelerated stability test due to harder conditions such as temperature and pressure.
(§1) Stabilizers were presolved in DragoCalm® under stirring at room temperature or, if necessary at a temperature from 40 to 50° C. […] The DragoCalm® samples (15 g) were placed into the reaction vessel and were either exposed to 5 bars of oxygen for 24 hours at 70° C. using the Oxipres device.
(§2) The evaluation of the samples, i.e. the determination of content of Avns was determined by HPLC (comparison before and after Oxipres treatment).
The content of Avenanthramide C was determined by HPLC before and after Oxipres treatment.

mast cell = conditions: through the interaction with the neurokinin-1 receptor; cited from earlier work
[3] = during storage; cited from earlier work
[4] = Oxipres stability test of DragoCalm: Avenanthramide B; conditions: before and after Oxipres treatment, additive 0.1 %
Procedure: as §1, §2
(§3) The test procedure and the evaluation of the samples were carried out in the same manner as described above for Avenanthramide C.

[5] = Oxipres stability test of DragoCalm: Avenanthramide L; conditions: before and after Oxipres treatment
Procedure: as §1, §2, §3

[6] = 24 h, 0.1 %
Procedure: as §1, §2, §3

[7] = in DragoCalm after Oxipres treatment (5 bars oxygen, 24 hours, 70° C.), additive 0.10 %
[8] = in DragoCalm before Oxipres treatment, additive 0.10 %
[9] = in DragoCalm after Oxipres treatment (5 bars oxygen, 24 hours, 70° C.), additive 0.05 %
[10] = in DragoCalm before Oxipres treatment, additive 0.05 %

Compound	Δb* ([1]; additive 0.10 %)	Avenanthramide C End (ppm) [2, 7]	Avenanthramide C Start (ppm) [2, 8]	other results
CC(O)C(=O)O (stereo not shown) [Lactic acid]	8.4	1 ppm	12 ppm	–
O=C([O-])CC[C@@H](C(=O)[O-])N(CC(=O)[O-])CC(=O)[O-].[Na+].[Na+].[Na+].[Na+] [Tetrasodium Glutamate Diacetate]	7.8	1 ppm	13 ppm	–
O=C(CCc1ccc(O)cc1)Nc1ccccc1C(=O)O [Dihydroavenanthramide D, 2-{[3-(4-Hydroxyphenyl)propanoyl]amino}benzoic acid]	–	–	–	mast cell degranulation (mast cell): inhibits mast cell degranulation; stability (known, words) [3]: more stable in comparison to Avenanthramide C
O=C([O-])CN(CCN(CC(=O)[O-])CC(=O)O)CC(=O)O.[Na+].[Na+] [Disodium EDTA]	5.0	–	–	Avenanthramide C End (ppm) [2]: 9 ppm; Avenanthramide C Start (ppm) [2]: 16 ppm
O=C(O)CC(O)C(=O)O (stereo not shown) [Malic acid]	8.3	1 ppm	11 ppm	degradation inhibitory activity, ranking of single stabilizers [2]: most single effective alpha hydroxy acids
CC(=O)c1ccc(O)cc1 [4-Hydroxyacetophenone]	7.3	1 ppm	18 ppm	Degradation of Avenanthramide B (%) [4]: 18.5%; Degradation (%) of Avenanthramide C ([2]; additive 0.10 %): 94.4%
O=C(C=Cc1ccc(O)c(O)c1)Nc1ccc(O)cc1C(=O)O [Avenanthramide C, N-(3′-4′-dihydroxycinnamoyl)-5-hydroxyanthranilic acid]	–	–	–	stability (known, words) [3]: low stability
O=C(O)CC(O)(CC(=O)O)C(=O)O [Citric acid]	8.2	1 ppm	18 ppm	Δb* ([1]; additive 0.05 %): 6.5; Avenanthramide C End (ppm) [2, 9]: 1 ppm; Avenanthramide C Start (ppm) [2, 10]: 26 ppm
Trisodium Ethylenediamine Disuccinate	7.0	3 ppm	9 ppm	Degradation of Avenanthramide B (%) [4]: 7.4%; Degradation (%) of Avenanthramide C ([2]; additive 0.10 %): 66.7%; Degradation of Avenanthramide L (%) ([5]; additive 0.10 %): 0%
O=C1O[C@H]([C@@H](O)CO)C(O)=C1O [Ascorbic acid]	–	–	–	Δb* ([1]; additive 0.05 %): 8.2; degradation inhibitory activity, ranking of single stabilizers [2]: most effective single antioxidant; Avenanthramide C End (ppm) [2, 9]: 3 ppm; Avenanthramide C Start (ppm) [2, 10]: 16 ppm
O=C(O)C(O)C(O)C(=O)O (stereo not shown) [Tartaric acid]	9.4	1 ppm	11 ppm	degradation inhibitory activity, ranking of single stabilizers [2]: most single effective alpha hydroxy acids
O=P(O)(O)O[C@H]1[C@H](OP(=O)(O)O)[C@@H](OP(=O)(O)O)[C@H](OP(=O)(O)O)[C@@H](OP(=O)(O)O)[C@H]1OP(=O)(O)O [Phytic Acid]	8.2	2 ppm	14 ppm	Degradation of Avenanthramide L (%) [6]: 20.0%
CC(C(=O)[O-])N(CC(=O)[O-])CC(=O)[O-].[Na+].[Na+].[Na+] (stereo not shown) [Trisodium MGDA, trisodium methylglycinediacetic acid]	–	–	–	Degradation of Avenanthramide L (%) ([5]; additive 0.2 %): 20.0%
